Assay results as given in paper PMC3853718 (Journal of Translational Medicine, 2013).

Tested on: subjects with advanced malignancies
Assay: Phase 1 dose escalation: toxicity, safety and tolerability (DLT, MAD, RP2D, AEs)

CCc1cnn2c(NCc3ccc[n+]([O-])c3)cc(N3CCCC[C@H]3CCO)nc12 [dinaciclib]
1 (33) n (%): TEAE: Hyperglycemia (10 mg/m^2 (n = 3), Grade 3–4) | TEAE: Neutropenia (10 mg/m^2 (n = 3), Grade 3–4) | TEAE: Subjects with any AE (10 mg/m^2 (n = 3), Grade 3–4)
1 (9) n (%): TEAE: Abdominal distension (12 mg/m^2 (n = 11), All grades) | TEAE: Back pain (12 mg/m^2 (n = 11), All grades) | TEAE: Diarrhea (12 mg/m^2 (n = 11), All grades) | TEAE: Dizziness (12 mg/m^2 (n = 11), All grades) | TEAE: Flatulence (12 mg/m^2 (n = 11), All grades) | TEAE: Anemia (12 mg/m^2 (n = 11), Grade 3–4) | TEAE: Hypokalemia (12 mg/m^2 (n = 11), Grade 3–4) | TEAE: Increased AST (12 mg/m^2 (n = 11), Grade 3–4)
3 (27) n (%): TEAE: Hyperbilirubinemia (12 mg/m^2 (n = 11), All grades) | TEAE: Hyperuricemia (12 mg/m^2 (n = 11), All grades) | TEAE: Increased ALT (12 mg/m^2 (n = 11), All grades) | TEAE: Nausea (12 mg/m^2 (n = 11), All grades) | TEAE: Peripheral edema (12 mg/m^2 (n = 11), All grades) | TEAE: Vomiting (12 mg/m^2 (n = 11), All grades)
1(9) n (%): TEAE: Hyperbilirubinemia (12 mg/m^2 (n = 11), Grade 3–4)
2 (40) n (%): TEAE: Anemia (14 mg/m^2 (n = 5), All grades) | TEAE: Hyperbilirubinemia (14 mg/m^2 (n = 5), All grades) | TEAE: Vomiting (14 mg/m^2 (n = 5), All grades)
3 (60) n (%): TEAE: Dehydration (14 mg/m^2 (n = 5), All grades) | TEAE: Neutropenia (14 mg/m^2 (n = 5), All grades)
8 (73) n (%): TEAE: Subjects with any AE (12 mg/m^2 (n = 11), Grade 3–4)
5 (100) n (%): TEAE: Subjects with any AE (14 mg/m^2 (n = 5), All grades)
1 (20) n (%): TEAE: Asthenia (14 mg/m^2 (n = 5), All grades) | TEAE: Back pain (14 mg/m^2 (n = 5), All grades) | TEAE: Constipation (14 mg/m^2 (n = 5), All grades) | TEAE: Decreased appetite (14 mg/m^2 (n = 5), All grades) | TEAE: Dizziness (14 mg/m^2 (n = 5), All grades) | TEAE: Dyspnea (14 mg/m^2 (n = 5), All grades) | TEAE: Hyperglycemia (14 mg/m^2 (n = 5), All grades) | TEAE: Hyperuricemia (14 mg/m^2 (n = 5), All grades) | TEAE: Increased ALP (14 mg/m^2 (n = 5), All grades) | TEAE: Increased AST (14 mg/m^2 (n = 5), All grades)
2 (18) n (%): TEAE: Constipation (12 mg/m^2 (n = 11), All grades) | TEAE: Cough (12 mg/m^2 (n = 11), All grades) | TEAE: Decreased appetite (12 mg/m^2 (n = 11), All grades) | TEAE: Hypokalemia (12 mg/m^2 (n = 11), All grades) | TEAE: Hypophosphatemia (12 mg/m^2 (n = 11), All grades) | TEAE: Hyperglycemia (12 mg/m^2 (n = 11), Grade 3–4) | TEAE: Hyperuricemia (12 mg/m^2 (n = 11), Grade 3–4) | TEAE: Hypophosphatemia (12 mg/m^2 (n = 11), Grade 3–4) | TEAE: Neutropenia (12 mg/m^2 (n = 11), Grade 3–4)
6 (55) n (%): TEAE: Anemia (12 mg/m^2 (n = 11), All grades)
4 (80) n (%): TEAE: Nausea (14 mg/m^2 (n = 5), All grades)
4 (36) n (%): TEAE: Asthenia (12 mg/m^2 (n = 11), All grades) | TEAE: Fatigue (12 mg/m^2 (n = 11), All grades) | TEAE: Hyperglycemia (12 mg/m^2 (n = 11), All grades) | TEAE: Increased ALP (12 mg/m^2 (n = 11), All grades) | TEAE: Increased AST (12 mg/m^2 (n = 11), All grades) | TEAE: Neutropenia (12 mg/m^2 (n = 11), All grades) | TEAE: Pyrexia (12 mg/m^2 (n = 11), All grades) | TEAE: Urinary tract infection (12 mg/m^2 (n = 11), All grades)
11 (100) n (%): TEAE: Subjects with any AE (12 mg/m^2 (n = 11), All grades)
0 n (%): TEAE: Hyperuricemia (10 mg/m^2 (n = 3), Grade 3–4) | TEAE: Hypokalemia (10 mg/m^2 (n = 3), Grade 3–4) | TEAE: Hypophosphatemia (10 mg/m^2 (n = 3), Grade 3–4) | TEAE: Increased ALP (10 mg/m^2 (n = 3), Grade 3–4) | TEAE: Increased ALT (10 mg/m^2 (n = 3), Grade 3–4) | TEAE: Increased AST (10 mg/m^2 (n = 3), Grade 3–4) | TEAE: Nausea (10 mg/m^2 (n = 3), Grade 3–4) | TEAE: Peripheral edema (10 mg/m^2 (n = 3), Grade 3–4) | TEAE: Pyrexia (10 mg/m^2 (n = 3), Grade 3–4) | TEAE: Urinary tract infection (10 mg/m^2 (n = 3), Grade 3–4) | TEAE: Vomiting (10 mg/m^2 (n = 3), Grade 3–4) | TEAE: Weight decreased (10 mg/m^2 (n = 3), Grade 3–4) | TEAE: Abdominal pain (12 mg/m^2 (n = 11), All grades) | TEAE: Dehydration (12 mg/m^2 (n = 11), All grades) | TEAE: Dyspnea (12 mg/m^2 (n = 11), All grades) | TEAE: Weight decreased (12 mg/m^2 (n = 11), All grades) | TEAE: Abdominal distension (12 mg/m^2 (n = 11), Grade 3–4) | TEAE: Abdominal pain (12 mg/m^2 (n = 11), Grade 3–4) | TEAE: Asthenia (12 mg/m^2 (n = 11), Grade 3–4) | TEAE: Back pain (12 mg/m^2 (n = 11), Grade 3–4) | TEAE: Constipation (12 mg/m^2 (n = 11), Grade 3–4) | TEAE: Cough (12 mg/m^2 (n = 11), Grade 3–4) | TEAE: Decreased appetite (12 mg/m^2 (n = 11), Grade 3–4) | TEAE: Dehydration (12 mg/m^2 (n = 11), Grade 3–4) | TEAE: Diarrhea (12 mg/m^2 (n = 11), Grade 3–4) | TEAE: Dizziness (12 mg/m^2 (n = 11), Grade 3–4) | TEAE: Dyspnea (12 mg/m^2 (n = 11), Grade 3–4) | TEAE: Fatigue (12 mg/m^2 (n = 11), Grade 3–4) | TEAE: Flatulence (12 mg/m^2 (n = 11), Grade 3–4) | TEAE: Increased ALP (12 mg/m^2 (n = 11), Grade 3–4) | TEAE: Increased ALT (12 mg/m^2 (n = 11), Grade 3–4) | TEAE: Nausea (12 mg/m^2 (n = 11), Grade 3–4) | TEAE: Peripheral edema (12 mg/m^2 (n = 11), Grade 3–4) | TEAE: Pyrexia (12 mg/m^2 (n = 11), Grade 3–4) | TEAE: Urinary tract infection (12 mg/m^2 (n = 11), Grade 3–4) | TEAE: Vomiting (12 mg/m^2 (n = 11), Grade 3–4) | TEAE: Weight decreased (12 mg/m^2 (n = 11), Grade 3–4) | TEAE: Abdominal distension (14 mg/m^2 (n = 5), All grades) | TEAE: Abdominal pain (14 mg/m^2 (n = 5), All grades) | TEAE: Cough (14 mg/m^2 (n = 5), All grades) | TEAE: Diarrhea (14 mg/m^2 (n = 5), All grades) | TEAE: Fatigue (14 mg/m^2 (n = 5), All grades) | TEAE: Flatulence (14 mg/m^2 (n = 5), All grades) | TEAE: Hypokalemia (14 mg/m^2 (n = 5), All grades) | TEAE: Hypophosphatemia (14 mg/m^2 (n = 5), All grades) | TEAE: Increased ALT (14 mg/m^2 (n = 5), All grades) | TEAE: Peripheral edema (14 mg/m^2 (n = 5), All grades) | TEAE: Pyrexia (14 mg/m^2 (n = 5), All grades) | TEAE: Urinary tract infection (14 mg/m^2 (n = 5), All grades) | TEAE: Weight decreased (14 mg/m^2 (n = 5), All grades)
